Measured values: ChEMBL document CHEMBL1201862, “PubChem BioAssay data set” (2004)
Calls of active or inactive are those of the source.

Experiments:
[1] = biological target: T1, Endoribonuclease toxin MazF (Escherichia coli K-12, UniProt P0AE70); assay: MazF toxin RNase activators, dose response, biochemical, fluorescence, single-stranded RNA substrate, uHTS hits (AID 588481); assay type: functional
T1 sequence (P0AE70 whole entry): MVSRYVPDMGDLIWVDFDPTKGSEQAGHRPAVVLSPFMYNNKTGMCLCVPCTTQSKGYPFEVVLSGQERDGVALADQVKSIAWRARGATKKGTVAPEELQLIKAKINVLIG

[2] = biological target: T1, Endoribonuclease toxin MazF; assay: fluorescent RNA oligo signal without MazF, dose response, counter-screen for MazEF activator project, biochemical, fluorescence, single-stranded RNase substrate (AID 588502); assay type: functional
[3] = biological target: Glyceraldehyde-3-phosphate dehydrogenase (Homo sapiens, UniProt P04406)
Chain of Glyceraldehyde-3-phosphate dehydrogenase (P04406 whole entry): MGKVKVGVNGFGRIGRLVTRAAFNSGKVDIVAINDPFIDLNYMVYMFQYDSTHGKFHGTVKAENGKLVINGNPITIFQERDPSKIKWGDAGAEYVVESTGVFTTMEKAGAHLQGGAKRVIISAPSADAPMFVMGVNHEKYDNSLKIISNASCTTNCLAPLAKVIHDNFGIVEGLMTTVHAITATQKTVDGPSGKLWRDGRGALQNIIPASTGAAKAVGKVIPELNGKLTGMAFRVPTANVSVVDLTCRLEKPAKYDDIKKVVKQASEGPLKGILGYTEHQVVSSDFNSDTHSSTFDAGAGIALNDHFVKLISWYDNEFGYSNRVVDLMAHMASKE

[4] = biological target: T2, Alkaline phosphatase, tissue-nonspecific isozyme (Homo sapiens, UniProt P05186); assay: human TNAP enzyme inhibitors, SAR follow-up, biochemical, luminescent, dose response (AID 1056)
T2 sequence (P05186 whole entry): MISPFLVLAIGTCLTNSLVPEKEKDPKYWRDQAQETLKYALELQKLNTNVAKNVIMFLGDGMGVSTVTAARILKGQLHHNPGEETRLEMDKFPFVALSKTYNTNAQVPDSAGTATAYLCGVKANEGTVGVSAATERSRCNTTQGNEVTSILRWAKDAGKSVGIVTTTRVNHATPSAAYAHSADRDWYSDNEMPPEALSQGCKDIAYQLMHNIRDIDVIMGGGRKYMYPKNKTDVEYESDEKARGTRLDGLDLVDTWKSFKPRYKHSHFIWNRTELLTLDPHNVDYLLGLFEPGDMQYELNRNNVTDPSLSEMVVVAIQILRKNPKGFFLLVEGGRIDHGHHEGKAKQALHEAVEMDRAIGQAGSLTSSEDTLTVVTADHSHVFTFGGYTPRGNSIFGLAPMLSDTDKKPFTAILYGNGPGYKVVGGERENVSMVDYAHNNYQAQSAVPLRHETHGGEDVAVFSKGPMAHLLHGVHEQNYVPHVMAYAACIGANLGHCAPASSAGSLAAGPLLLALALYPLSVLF

[5] = test system: HEK293; assay: cells; settings: Homo sapiens
[6] = test system: HEK293; assay: cells; settings: Homo sapiens; remark: listed apart in the source
[7] = growth suppression of beta-catenin-knockout colon cells, dose response, cell-based, HCT116, human colon tumor (AID 1045); assay type: functional;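 note: HCT116 colon tumor cells with beta catenin knocked out; cells exposed to compound for 60 hours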
[8] = growth suppression of PTEN-null colon cells, dose response, cell-based, HCT116 PTEN knockout (AID 1047); assay type: functional;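 note: HCT116 colon tumor cells with PTEN knocked out; cells exposed to compound for 60 hours before readout; potency for loss of cell viability measured by luminescence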
[9] = biological target: T3, High affinity choline transporter 1 (Homo sapiens, UniProt Q9GZV3); assay: CHT inhibitors, dose response, cell-based, 5-point CRC, membrane potential dye (AID 504840); assay type: functional
T3 sequence (Q9GZV3 whole entry): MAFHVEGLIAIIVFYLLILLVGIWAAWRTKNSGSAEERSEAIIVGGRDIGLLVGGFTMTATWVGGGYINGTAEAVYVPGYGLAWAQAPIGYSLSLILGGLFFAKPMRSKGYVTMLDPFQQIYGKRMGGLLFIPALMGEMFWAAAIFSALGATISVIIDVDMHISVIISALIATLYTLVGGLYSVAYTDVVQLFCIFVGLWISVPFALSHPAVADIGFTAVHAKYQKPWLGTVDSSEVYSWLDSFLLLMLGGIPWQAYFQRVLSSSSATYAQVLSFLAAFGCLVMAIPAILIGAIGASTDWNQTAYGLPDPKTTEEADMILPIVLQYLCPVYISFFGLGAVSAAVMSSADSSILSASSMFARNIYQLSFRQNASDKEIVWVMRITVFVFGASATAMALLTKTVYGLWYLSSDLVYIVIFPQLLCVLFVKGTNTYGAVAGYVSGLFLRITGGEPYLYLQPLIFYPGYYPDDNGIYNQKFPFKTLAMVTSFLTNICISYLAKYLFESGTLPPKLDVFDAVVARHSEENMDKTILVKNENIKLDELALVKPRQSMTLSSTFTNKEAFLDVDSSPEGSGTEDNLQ

[10] = nonselective inhibitors of cellular cAMP signaling, dose response, counter-screen for MC4R biased antagonist project, cell-based, TR-FRET cAMP detection (AID 602305); assay type: functional;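 note: U2OS cells stimulated with forskolin near its EC80 as the cAMP inducer; potency is for inhibition of forskolin-stimulated cAMP signaling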
[11] = biological target: Melanocortin receptor 4 (Homo sapiens, UniProt P32245); assay: MC4R antagonist potency on cAMP, dose response, cell-based, TR-FRET, biased antagonists (AID 602298); assay type: functional;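 note: antagonist potency against agonist-stimulated cAMP production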
Chain of Melanocortin receptor 4 (P32245 whole entry): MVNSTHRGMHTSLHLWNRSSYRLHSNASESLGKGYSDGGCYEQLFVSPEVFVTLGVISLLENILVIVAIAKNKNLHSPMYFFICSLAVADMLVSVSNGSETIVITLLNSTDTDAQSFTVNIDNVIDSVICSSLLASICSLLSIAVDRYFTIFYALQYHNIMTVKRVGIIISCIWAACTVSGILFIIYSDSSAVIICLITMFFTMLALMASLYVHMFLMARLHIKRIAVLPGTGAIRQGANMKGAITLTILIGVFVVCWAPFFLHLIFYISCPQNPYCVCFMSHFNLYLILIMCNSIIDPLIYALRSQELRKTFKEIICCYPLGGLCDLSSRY

[12] = biological target: Peroxisome proliferator-activated receptor gamma/Nuclear receptor coactivator 1 (Homo sapiens, UniProt P37231); assay: (§1) TR-FRET dose response biochemical High Throughput Screening assay for agonists of the steroid receptor coactivator 1 (SRC-1) recruitment by the peroxisome proliferator-activated receptor gamma (PPAR gamma): non-selective agonists. [Related pubchem assays (depositor defined):AID1300, AID1808, AID504735, AID631]; assay type: protein assay
Chain of Peroxisome proliferator-activated receptor gamma/Nuclear receptor coactivator 1 (P37231 whole entry): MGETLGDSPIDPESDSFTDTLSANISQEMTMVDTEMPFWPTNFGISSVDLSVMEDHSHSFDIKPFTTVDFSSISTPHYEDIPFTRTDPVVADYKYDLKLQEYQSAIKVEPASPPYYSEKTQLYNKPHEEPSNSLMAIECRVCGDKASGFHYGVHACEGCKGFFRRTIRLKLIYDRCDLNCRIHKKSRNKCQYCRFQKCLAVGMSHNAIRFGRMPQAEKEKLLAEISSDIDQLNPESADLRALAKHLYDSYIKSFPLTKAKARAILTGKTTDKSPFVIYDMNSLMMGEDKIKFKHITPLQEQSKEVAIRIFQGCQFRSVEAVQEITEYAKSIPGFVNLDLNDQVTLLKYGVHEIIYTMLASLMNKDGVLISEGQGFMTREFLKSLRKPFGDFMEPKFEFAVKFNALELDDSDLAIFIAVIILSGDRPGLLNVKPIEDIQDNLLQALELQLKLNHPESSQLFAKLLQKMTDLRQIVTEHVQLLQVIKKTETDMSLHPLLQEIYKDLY
Chain of Peroxisome proliferator-activated receptor gamma/Nuclear receptor coactivator 1 (Q15788 whole entry, further chain): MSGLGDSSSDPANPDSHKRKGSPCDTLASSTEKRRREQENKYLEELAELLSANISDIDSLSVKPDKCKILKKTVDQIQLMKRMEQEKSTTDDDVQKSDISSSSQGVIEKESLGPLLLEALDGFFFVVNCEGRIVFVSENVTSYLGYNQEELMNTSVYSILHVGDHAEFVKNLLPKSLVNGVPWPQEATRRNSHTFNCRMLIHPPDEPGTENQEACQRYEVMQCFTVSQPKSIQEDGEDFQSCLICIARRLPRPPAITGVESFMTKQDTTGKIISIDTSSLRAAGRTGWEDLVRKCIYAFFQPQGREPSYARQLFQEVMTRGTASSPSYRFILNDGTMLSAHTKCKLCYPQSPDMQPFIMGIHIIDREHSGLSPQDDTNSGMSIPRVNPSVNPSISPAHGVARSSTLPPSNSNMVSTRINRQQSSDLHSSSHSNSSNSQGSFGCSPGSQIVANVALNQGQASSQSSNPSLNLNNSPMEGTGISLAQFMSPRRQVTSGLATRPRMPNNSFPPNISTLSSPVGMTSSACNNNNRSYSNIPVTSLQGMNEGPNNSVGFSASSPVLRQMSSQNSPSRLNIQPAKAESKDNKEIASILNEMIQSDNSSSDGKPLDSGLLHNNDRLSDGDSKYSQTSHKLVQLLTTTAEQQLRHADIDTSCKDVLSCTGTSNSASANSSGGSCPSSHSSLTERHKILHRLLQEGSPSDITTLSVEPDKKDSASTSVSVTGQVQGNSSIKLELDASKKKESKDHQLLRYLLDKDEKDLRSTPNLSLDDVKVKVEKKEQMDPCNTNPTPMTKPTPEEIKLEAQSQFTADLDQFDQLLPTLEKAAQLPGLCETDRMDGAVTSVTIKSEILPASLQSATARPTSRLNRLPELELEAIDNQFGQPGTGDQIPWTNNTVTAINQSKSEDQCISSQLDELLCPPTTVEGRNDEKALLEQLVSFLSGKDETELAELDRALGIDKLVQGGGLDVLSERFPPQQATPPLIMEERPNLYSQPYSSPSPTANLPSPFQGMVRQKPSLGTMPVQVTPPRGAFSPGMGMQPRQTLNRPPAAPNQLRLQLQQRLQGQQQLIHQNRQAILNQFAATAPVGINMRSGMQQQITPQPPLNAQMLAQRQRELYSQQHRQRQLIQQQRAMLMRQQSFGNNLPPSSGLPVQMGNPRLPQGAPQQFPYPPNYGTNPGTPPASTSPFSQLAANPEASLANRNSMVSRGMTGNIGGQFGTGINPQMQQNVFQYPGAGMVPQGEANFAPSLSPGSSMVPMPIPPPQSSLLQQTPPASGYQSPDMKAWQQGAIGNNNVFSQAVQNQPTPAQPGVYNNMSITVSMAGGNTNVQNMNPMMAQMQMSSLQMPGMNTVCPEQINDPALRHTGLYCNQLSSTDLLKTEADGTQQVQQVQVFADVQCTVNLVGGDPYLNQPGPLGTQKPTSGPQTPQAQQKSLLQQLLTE

[13] = biological target: Peroxisome proliferator-activated receptor gamma/Nuclear receptor coactivator 3 (Homo sapiens, UniProt P37231); assay: as §1, with “3 (SRC-3)” for “1 (SRC-1)”, “assays: 1301 (Confirmation screen.), 1048 (Primary screen.)]” for “assays (depositor defined):AID1300, AID1808, AID504735, AID631]”; assay type: functional
[14] = biological target: Peroxisome proliferator-activated receptor gamma/Nuclear receptor coactivator 2 (Homo sapiens, UniProt P37231); assay: TR-FRET dose response biochemical High Throughput Screening assay for agonists of the steroid receptor coactivator 2 (SRC-2) recruitment by the peroxisome proliferator-activated receptor gamma (PPAR gamma): non-selective agonists. [Related pubchem assays: 1297, 1032 ]; assay type: functional
Chain of Peroxisome proliferator-activated receptor gamma/Nuclear receptor coactivator 2 (P37231 whole entry): as the sequence (P37231 whole entry) above
Chain of Peroxisome proliferator-activated receptor gamma/Nuclear receptor coactivator 2 (Q15596 whole entry, further chain): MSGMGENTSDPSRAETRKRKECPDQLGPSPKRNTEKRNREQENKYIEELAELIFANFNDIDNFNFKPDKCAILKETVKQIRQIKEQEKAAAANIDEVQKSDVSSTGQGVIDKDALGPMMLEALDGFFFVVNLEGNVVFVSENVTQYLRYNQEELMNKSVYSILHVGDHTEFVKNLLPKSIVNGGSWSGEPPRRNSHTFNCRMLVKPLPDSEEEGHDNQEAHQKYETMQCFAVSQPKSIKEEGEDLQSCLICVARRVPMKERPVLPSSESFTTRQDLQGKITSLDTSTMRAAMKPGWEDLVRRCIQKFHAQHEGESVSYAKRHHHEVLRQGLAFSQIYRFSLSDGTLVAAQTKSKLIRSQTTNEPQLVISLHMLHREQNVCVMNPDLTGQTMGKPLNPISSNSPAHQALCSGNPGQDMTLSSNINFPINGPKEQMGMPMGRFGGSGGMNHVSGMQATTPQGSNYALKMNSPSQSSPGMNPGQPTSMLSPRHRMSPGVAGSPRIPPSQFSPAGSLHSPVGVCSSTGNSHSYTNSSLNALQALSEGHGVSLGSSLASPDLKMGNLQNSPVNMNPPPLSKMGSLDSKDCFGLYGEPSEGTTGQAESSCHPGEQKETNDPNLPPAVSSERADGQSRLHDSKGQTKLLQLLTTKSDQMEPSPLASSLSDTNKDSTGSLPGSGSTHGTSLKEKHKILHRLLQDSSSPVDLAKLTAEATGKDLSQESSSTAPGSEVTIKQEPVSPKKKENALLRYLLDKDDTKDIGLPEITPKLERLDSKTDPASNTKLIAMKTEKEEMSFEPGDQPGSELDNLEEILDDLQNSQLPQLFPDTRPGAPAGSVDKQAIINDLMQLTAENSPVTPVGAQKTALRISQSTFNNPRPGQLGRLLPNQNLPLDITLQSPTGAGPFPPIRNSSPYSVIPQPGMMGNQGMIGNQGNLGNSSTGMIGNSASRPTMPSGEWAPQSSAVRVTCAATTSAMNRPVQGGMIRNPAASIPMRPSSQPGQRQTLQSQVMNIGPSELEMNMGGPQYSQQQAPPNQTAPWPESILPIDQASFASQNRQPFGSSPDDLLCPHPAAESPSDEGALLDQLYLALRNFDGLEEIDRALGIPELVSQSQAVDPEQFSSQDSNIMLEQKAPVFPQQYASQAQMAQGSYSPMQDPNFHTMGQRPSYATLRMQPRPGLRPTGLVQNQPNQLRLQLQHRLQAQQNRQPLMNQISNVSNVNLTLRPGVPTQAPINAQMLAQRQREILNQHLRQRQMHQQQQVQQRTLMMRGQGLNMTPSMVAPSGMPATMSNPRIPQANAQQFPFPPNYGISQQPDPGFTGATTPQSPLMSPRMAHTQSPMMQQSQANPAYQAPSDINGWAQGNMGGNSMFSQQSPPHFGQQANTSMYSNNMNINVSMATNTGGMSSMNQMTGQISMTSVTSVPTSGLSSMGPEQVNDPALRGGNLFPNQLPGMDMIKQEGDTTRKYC

[15] = inhibitors of intracellular T. cruzi replication, confirmation, NIH3T3 host cells, beta-gal luminescence (AID 2044); assay type: functional, cell-based;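 note: intracellular parasites grown in NIH/3T3 mouse fibroblasts as host cells; luminescent beta-galactosidase reporter signal from transgenic T. cruzi replicating inside host cells; inhibitors lower the luminescence signal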
[16] = cytotoxicity toward NIH3T3 fibroblasts, dose response, counter-screen, cell-based, ATP luminescence, mouse fibroblasts (AID 2010); assay type: functional;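 note: cells exposed to compound for about 90 hours before reading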
[17] = biological target: T4, Cysteine protease ATG4B (Homo sapiens, UniProt Q9Y4P1); assay type: functional;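 note: Fluorescence-based dose-response confirmation assay measuring inhibition of ATG4B activity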
T4 sequence (Q9Y4P1 whole entry): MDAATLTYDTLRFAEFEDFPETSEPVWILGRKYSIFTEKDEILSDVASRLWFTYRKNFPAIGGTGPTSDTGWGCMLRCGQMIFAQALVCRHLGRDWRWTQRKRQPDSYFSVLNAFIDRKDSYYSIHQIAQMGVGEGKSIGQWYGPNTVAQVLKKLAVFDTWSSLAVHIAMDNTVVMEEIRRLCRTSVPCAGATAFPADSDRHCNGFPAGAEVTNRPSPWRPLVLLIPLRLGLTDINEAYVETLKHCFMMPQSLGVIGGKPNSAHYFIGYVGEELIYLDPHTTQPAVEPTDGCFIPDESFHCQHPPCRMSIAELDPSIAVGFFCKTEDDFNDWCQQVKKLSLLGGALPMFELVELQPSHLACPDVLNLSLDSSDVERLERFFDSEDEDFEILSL

[18] = biological target: Phospholipase A2 (Homo sapiens, UniProt P04054); assay type: functional;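 note: confirmatory dose-response counterscreen on phospholipase A2, testing hits that came from an ultra-high-throughput screen for ATG4B inhibitors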
Chain of Phospholipase A2 (P04054 whole entry): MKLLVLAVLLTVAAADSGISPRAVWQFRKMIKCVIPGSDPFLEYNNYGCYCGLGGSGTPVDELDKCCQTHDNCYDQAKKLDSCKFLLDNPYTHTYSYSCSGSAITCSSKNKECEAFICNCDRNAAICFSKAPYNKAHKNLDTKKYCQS

[19] = biological target: Tumor necrosis factor (Homo sapiens, UniProt P01375); assay: TNFa-triggered NF-kB activation inhibitors, SAR follow-up, cell-based, revised (AID 2337); assay type: functional
Chain of Tumor necrosis factor (P01375 whole entry, the tested form may be a part): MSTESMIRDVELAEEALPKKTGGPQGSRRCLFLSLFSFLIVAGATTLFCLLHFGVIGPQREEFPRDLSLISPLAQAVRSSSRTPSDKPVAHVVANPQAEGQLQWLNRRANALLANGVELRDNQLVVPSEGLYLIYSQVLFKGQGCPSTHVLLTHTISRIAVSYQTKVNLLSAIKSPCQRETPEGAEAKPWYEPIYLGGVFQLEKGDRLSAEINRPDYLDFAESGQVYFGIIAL

[20] = biological target: T5, Nucleotide-binding oligomerization domain-containing protein 1 (Homo sapiens, UniProt Q9Y239); assay: NOD1 signaling inhibitors, SAR follow-up, revised (AID 2333); assay type: functional
T5 sequence (Q9Y239 whole entry): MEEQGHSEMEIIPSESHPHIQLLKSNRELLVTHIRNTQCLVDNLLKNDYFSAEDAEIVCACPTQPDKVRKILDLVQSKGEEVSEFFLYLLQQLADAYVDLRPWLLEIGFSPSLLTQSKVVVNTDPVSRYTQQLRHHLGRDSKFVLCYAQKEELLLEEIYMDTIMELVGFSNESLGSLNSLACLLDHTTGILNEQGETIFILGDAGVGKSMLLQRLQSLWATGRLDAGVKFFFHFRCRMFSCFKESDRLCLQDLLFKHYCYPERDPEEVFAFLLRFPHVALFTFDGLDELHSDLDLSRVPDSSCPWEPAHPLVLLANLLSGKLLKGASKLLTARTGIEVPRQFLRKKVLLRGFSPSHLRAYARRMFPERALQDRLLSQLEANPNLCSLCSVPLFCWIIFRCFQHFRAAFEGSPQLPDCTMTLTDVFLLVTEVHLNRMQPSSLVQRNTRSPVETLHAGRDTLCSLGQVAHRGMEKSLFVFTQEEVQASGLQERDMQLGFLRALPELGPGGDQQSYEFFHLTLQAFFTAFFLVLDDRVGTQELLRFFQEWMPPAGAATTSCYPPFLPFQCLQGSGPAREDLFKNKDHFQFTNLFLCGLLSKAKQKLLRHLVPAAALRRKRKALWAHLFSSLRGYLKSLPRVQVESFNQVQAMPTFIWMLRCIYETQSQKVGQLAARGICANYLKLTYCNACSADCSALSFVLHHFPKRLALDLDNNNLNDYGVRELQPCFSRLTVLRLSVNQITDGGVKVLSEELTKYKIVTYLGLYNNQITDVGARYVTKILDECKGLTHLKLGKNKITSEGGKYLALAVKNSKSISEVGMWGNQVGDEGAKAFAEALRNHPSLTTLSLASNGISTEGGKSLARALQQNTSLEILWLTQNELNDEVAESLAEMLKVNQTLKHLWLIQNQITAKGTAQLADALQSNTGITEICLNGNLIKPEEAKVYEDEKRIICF

[21] = test system: HEK293; assay: cells; settings: Homo sapiens; remark: listed apart in the source
[22] = biological target: T6, Heat shock factor protein 1 (Mus musculus, UniProt P38532); assay: HSF1 potentiators in luciferase reporter cells, confirmation, cell-based, NIH3T3, luminescence, dose retest (AID 435004); assay type: functional;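 note: stress induced by proteasome inhibitor MG132 added 30 min after compound; luciferase reporter driven by HSF1 response element in NIH3T3 cells; actives raise luminescence as potentiators of the MG132 stress response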
T6 sequence (P38532 whole entry): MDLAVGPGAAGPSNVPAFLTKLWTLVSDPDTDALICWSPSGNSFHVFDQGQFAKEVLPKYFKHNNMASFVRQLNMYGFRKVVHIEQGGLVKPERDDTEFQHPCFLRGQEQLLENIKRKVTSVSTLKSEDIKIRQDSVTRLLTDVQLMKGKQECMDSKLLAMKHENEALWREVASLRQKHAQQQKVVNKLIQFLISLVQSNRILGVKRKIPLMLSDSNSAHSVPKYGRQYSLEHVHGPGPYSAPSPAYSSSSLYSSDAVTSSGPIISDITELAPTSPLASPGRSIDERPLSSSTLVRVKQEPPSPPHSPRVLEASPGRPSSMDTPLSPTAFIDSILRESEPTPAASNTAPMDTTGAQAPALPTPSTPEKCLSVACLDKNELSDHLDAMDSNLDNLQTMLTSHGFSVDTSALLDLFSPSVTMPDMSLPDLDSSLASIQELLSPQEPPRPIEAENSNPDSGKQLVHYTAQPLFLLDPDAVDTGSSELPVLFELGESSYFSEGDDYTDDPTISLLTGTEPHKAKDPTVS

Cn1c(=O)c2c(ncn2CC(=O)Nc2nc(-c3ccccc3Cl)cs2)n(C)c1=O
EC50 [1]: > 99 µM (inactive)
EC50 [2]: > 99 µM (inactive)

COc1cccc(Cc2nnc(N3C(=O)c4ccccc4C3=O)[nH]2)c1
IC50 [3]: > 100 µM (not active)
IC50 [4]: 1.19 µM (active)

N#CC1=C(N)S[C@H](C(=O)C23CC4CC(CC(C4)C2)C3)[C@H]1c1ccncc1
EC50 [5]: > 59.7 µM (inactive)
EC50 [6]: > 59.7 µM (inactive)

CCOC(=O)c1c(NC(=O)CSc2nnc(-c3c[nH]c4ccccc34)n2CCOC)sc2c1CCCCC2
EC50 [7]: 26.3 µM (active)
EC50 [5]: > 59.7 µM (inactive)
EC50 [8]: 21.3 µM (active)
EC50 [6]: > 59.7 µM (inactive)

CCn1c(=O)cc(OCC(=O)NC(C)c2ccc3c(c2)OCCO3)c2ccccc21 (configuration not stated)
IC50 [9]: 15.8 µM (active)

CCOC(=O)c1cnc2ccc(OCC)cc2c1N(C)Cc1ccccc1
IC50 [10]: > 64.6 µM (inactive)
IC50 [11]: > 64.6 µM (inactive)

CCOc1ccc(NC(=O)CNC(=O)c2nn(-c3ccc(OC)cc3)c(=O)c3ccccc23)cc1
EC50 [1]: 48.2 µM (inactive)
EC50 [2]: > 99 µM (inactive)

O=C(O)c1cc(-c2ccc(Cl)s2)nc2ccccc12
EC50 [12]: 42.7 µM (inactive)
EC50 [13]: > 79.4 µM (not active)
IC50 [10]: > 64.6 µM (inactive)
EC50 [14]: 20.7 µM (not active)
IC50 [11]: > 64.6 µM (inactive)

COc1ccc(-c2cc(C(=O)Nc3cc(OC)cc(C(=O)Nc4cccc(C(F)(F)F)c4)c3)[nH]n2)cc1
IC50 [10]: > 64.6 µM (inactive)
IC50 [11]: > 64.6 µM (inactive)

CC(C)(C)N1C(=O)[C@H]2[C@@H](c3ccc(Br)cc3)N3C(=O)N(c4cccc(Br)c4)C(=O)[C@@]3(Cc3ccccc3)[C@H]2C1=O
EC50 [15]: 2.32 µM (active)
EC50 [5]: > 59.7 µM (inactive)
EC50 [16]: > 60 µM (not active)
EC50 [6]: > 59.7 µM (inactive)

Cc1ccc(C(=O)Nc2nc(-c3ccco3)c(-c3ccco3)s2)o1
IC50 [17]: 9.23 µM (active)
IC50 [18]: 5.79 µM (active)

CCOC(=O)C1CCCN(C(=O)c2csc(-c3ccc4c(c3)CCO4)n2)C1 (configuration not stated)
IC50 [9]: 13.2 µM (active)

Cc1cccc(C)c1-n1nnnc1SCC(=O)c1c(N)n(C2CC2)c(=O)[nH]c1=O
EC50 [1]: > 99 µM (inactive)
EC50 [2]: > 99 µM (inactive)

CC1CCc2c(sc(NC(=O)c3ccc(Br)cc3)c2C(=O)O)C1 (configuration not stated)
IC50 [19]: 6.82 µM (active)
IC50 [20]: 0.375 µM (active)
IC50 [21]: 4.72 µM (active)

O=C(Nc1sc2c(c1C(=O)O)CCCC2)c1ccc(Br)cc1
IC50 [19]: 2.25 µM (active)
IC50 [20]: 0.77 µM (active)
IC50 [21]: > 20 µM (inactive)

COc1ccc(F)c(-c2nc(CN3CCN(c4ncnc5ccccc45)CC3)c(C)o2)c1
IC50 [19]: 3.8 µM (active)
IC50 [20]: 3.93 µM (active)
IC50 [21]: 13.7 µM (active)

CCOC(=O)c1ccc(/N=c2\sc(C(=O)OC)cc(=O)n2Cc2ccco2)cc1
EC50 [22]: 16.8 µM (active)
IC50 [10]: > 64.5 µM (inactive)
EC50 [7]: 5.88 µM (active)
EC50 [5]: > 59.6 µM (inactive)
EC50 [8]: 7.5 µM (active)
EC50 [6]: > 59.6 µM (inactive)
IC50 [11]: > 7.17 µM (active)
